Drawing on BindingDB's records for doi:10.1021/jm00150a026 (1985), this text covers Ki for 13 compounds.

For this test, the target named is Dihydrofolate reductase (Escherichia coli, UniProt P0ABQ4). The test can be described thus: Inhibition of Escherichia coli dihydrofolate reductase.

What is called Ki is the equilibrium dissociation constant of an inhibitor or competing ligand from its target.

Sequence of Dihydrofolate reductase (P0ABQ4 whole entry, looked up): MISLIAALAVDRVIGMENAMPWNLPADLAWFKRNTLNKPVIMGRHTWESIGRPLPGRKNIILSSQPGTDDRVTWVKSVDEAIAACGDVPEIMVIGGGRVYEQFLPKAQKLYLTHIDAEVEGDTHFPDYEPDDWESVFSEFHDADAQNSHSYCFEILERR

With `CC(C)(C)c1cccc(OCc2cccc(N3C(N)=NC(N)=NC3(C)C)c2)c1`, the affinity corresponds to a Ki of 871 nM.
To `CCCCCCCCCCCCOc1cccc(N2C(N)=NC(N)=NC2(C)C)c1` belongs 1320 nM; to `CC1(C)N=C(N)N=C(N)N1c1cccc(OCc2ccc(Cl)c(Cl)c2)c1`, 708 nM.
To `CC1(C)N=C(N)N=C(N)N1c1cccc(COc2cccc(NC(N)=S)c2)c1` belongs 676 nM; to `CC1(C)N=C(N)N=C(N)N1c1cccc(COc2cccc(Cl)c2)c1` [1-[3-(3-Chloro-phenoxymethyl)-phenyl]-6,6-dimethyl-1,6-dihydro-[1,3,5]triazine-2,4-diamine], 977 nM; to `CCc1cccc(OCc2cccc(N3C(N)=NC(N)=NC3(C)C)c2)c1` [1-[3-(3-Ethyl-phenoxymethyl)-phenyl]-6,6-dimethyl-1,6-dihydro-[1,3,5]triazine-2,4-diamine], 1120 nM.
On to `COc1cccc(OCc2cccc(N3C(N)=NC(N)=NC3(C)C)c2)c1` [1-[3-(3-Methoxy-phenoxymethyl)-phenyl]-6,6-dimethyl-1,6-dihydro-[1,3,5]triazine-2,4-diamine], for which the affinity, expressed as Ki, was 955 nM.
`CC1(C)N=C(N)N=C(N)N1c1cccc(COc2cccc(C#N)c2)c1` [3-[3-(4,6-Diamino-2,2-dimethyl-2H-[1,3,5]triazin-1-yl)-benzyloxy]-benzonitrile]: the affinity corresponds to a Ki of 891 nM.
The compound `Cc1cccc(OCc2cccc(N3C(N)=NC(N)=NC3(C)C)c2)c1` [6,6-Dimethyl-1-(3-m-tolyloxymethyl-phenyl)-1,6-dihydro-[1,3,5]triazine-2,4-diamine] returned a Ki of 537 nM.
Regarding `CCCCCCCCCCCCCCOc1cccc(N2C(N)=NC(N)=NC2(C)C)c1` [6,6-Dimethyl-1-(3-tetradecyloxy-phenyl)-1,6-dihydro-[1,3,5]triazine-2,4-diamine], affinity was put at a Ki of 1410 nM.
`CCCCCCCCCCCOc1cccc(N2C(N)=NC(N)=NC2(C)C)c1` [6,6-Dimethyl-1-(3-undecyloxy-phenyl)-1,6-dihydro-[1,3,5]triazine-2,4-diamine] came in with an inhibitory constant (Ki) of 646 nM.
`CC1(C)N=C(N)N=C(N)N1c1cccc(COc2cccc(CO)c2)c1` [{3-[3-(4,6-Diamino-2,2-dimethyl-2H-[1,3,5]triazin-1-yl)-benzyloxy]-phenyl}-methanol] registered a Ki of 646 nM.
The compound `CC1(C)N=C(N)N=C(N)N1c1cccc(COc2cccc(NC(N)=O)c2)c1` [{3-[3-(4,6-Diamino-2,2-dimethyl-2H-[1,3,5]triazin-1-yl)-benzyloxy]-phenyl}-urea] gave an inhibition constant Ki of 1230 nM.
